This note sets out measurements from publication PMC11778240, “Synthesis and preclinical evaluation of tigilanol tiglate analogs as latency-reversing agents for the eradication of HIV” (Science Advances, 2025).

One assay has as its target T1, PKC-δ (Homo sapiens, UniProt Q05655).
T1 construct: purchased Invitrogen (Sinobiological for the SUW402 experiment)
As to the kind of experiment: Cell-free PKC competition binding assay against 3H-PDBu. An excerpt: (§1) With a diverse library of compounds bearing unique functionalities on the A-, B-, and C-rings (Fig. 6), we began to explore how these modifications affect PKC binding (Fig. 7A), NF-κB activation (Fig. 7B), cell permeation and PKC translocation (Fig. 7, C and D), and latency reversal in J-Lat cells (Fig. 8). […] We conducted this assay with phosphatidyl serine vesicles in solution that mimic the cellular membrane and play a critical role in the binding of small molecules to the PKC C1 domain (Fig. 7A) ([64]).
(§2) Cell-free PKC Binding Assay
The protein kinase C (PKC) affinity of EBC-46 and EBC-46 analogs was determined via competition with 3H-phorbol-12,13-dibutyrate (3H-PDBu) as described below. This procedure entails a glass-fiber filtration method to determine bound radioligand. The method of determining the radioligand Kd is also described.
(§3) Tris HCl (Fisher, ≥ 99%, stored at room temperature)
(§4) Phosphatidylserine (Avanti Polar Lipids, porcine, 25 mg/mL CHCl3 solution, stored at - […]
(§5) Bovine serum albumin (Sigma -Aldrich, ≥ 98%, globulin free, protease free, stored at 4 […]
Human PKC-β-I-GST fusion protein (Invitrogen, aliquoted and stored at -78 °C) Human PKC-δ-GST fusion protein (Invitrogen, aliquoted and stored at -78 °C) Glass-fiber filters (Whatman GF/B)
Preparation of 3H -PDBu solution : […]
(§6) a final concentration of 500 nM.
(§7) Preparation of phosphatidylserine (PS) vesicles :
(§8) For every 96 samples, 3.5 mg phosphatidylserine (140 μL) (25 mg/mL CHCl3 solution) was concentrated by removing chloroform under reduced pressure. The phosphatidylserine residue was resuspended in freshly prepared PKC binding assay buffer (3.5 mL), capped, and then thoroughly mixed by alternating between sonicating and vortexing, in 10 second intervals for 1 minute or until a cloudy white mixture (Branson Sonifier 250, power = 2, 50% duty cycle). The resulting cloudy white mixture (1 mg/mL) was stored on ic e until use.
(§9) Preparation of the "master mix" Solution :
(§10) Constituent Stock concentration (final concentration/amount in “master mix”):
(§11) PS vesicles (0.103 mg/mL)
(§12) Deionized H2O - Final vol of 30 mL
(§13) Preparation of PKC binding assay buffer:
(§14) For every 96 samples, to a 50 mL polypropylene tube was added Tris -HCl (pH 7.4, 1 M, 1.5 mL), KCl (1 M, 3 mL), CaCl2 (0.1 M, 35 μL – conventional isoforms only), and bovine serum albumin (60 mg). This mixture was diluted to 30 mL with deionized H2O and mixed gently. The buffer was […]
(§15) Preparation of PKC isoform solution:
(§16) For every 96 samples, PKC isoform solution was prepared by dissolving a 4 μg aliquot of the indicated recombinant human PKC isoform into 26.5 mL of PKC binding assay buffer. The diluted PKC was stored on ice for immediate use.
(§17) Preparation of PKC “master mix” solution:
(§18) To the PKC-isoform solution was added 1 mg/mL PS vesicles solution (3.30 mL), and 500 nM […]
(§19) The resulting “master mix” solution was vortexed and stored on […]
(§20) Preparation of analog compound dilutions:
(§21) Compound dilutions were prepared with filtered DMSO by serially diluting from a chosen "high" concentration. For the saturation binding experiment (radioligand Kd determination), the maximum radioligand concentration used was 4.0 nM with 2-fold dilutions between data points […]
isoforms ranges from 0.3 – 0.8 nM. […]
(§22) the middle of the binding curve.
For the competition binding experiment (analog Ki determination), 7 or 14 concentrations were used to define the inhibition curve, and compounds dilutions changed by factors of 2 or √2 between data points. The concentrations were chosen such that the in-assay concentration for the data points in the middle of the binding curve were approximately equal to the IC50 of the compound (if the IC50 is unknown, an exploratory binding assay is recommended prior to Ki determination). For assays with one compound per sheet, the √2-fold dilutions were prepared for the concentrations in the middle of the curve (e.g., for SUW400, the analog dilutions used were 15000 nM, 7500 nM, […]
PKC binding assay protocol (Saturation -binding experiment and Competition -binding experiment) […]

The target of the next assay is T2, PKC-β-I (Homo sapiens, UniProt P05771).
T2 construct: purchased Invitrogen
T2 sequence (P05771 whole entry): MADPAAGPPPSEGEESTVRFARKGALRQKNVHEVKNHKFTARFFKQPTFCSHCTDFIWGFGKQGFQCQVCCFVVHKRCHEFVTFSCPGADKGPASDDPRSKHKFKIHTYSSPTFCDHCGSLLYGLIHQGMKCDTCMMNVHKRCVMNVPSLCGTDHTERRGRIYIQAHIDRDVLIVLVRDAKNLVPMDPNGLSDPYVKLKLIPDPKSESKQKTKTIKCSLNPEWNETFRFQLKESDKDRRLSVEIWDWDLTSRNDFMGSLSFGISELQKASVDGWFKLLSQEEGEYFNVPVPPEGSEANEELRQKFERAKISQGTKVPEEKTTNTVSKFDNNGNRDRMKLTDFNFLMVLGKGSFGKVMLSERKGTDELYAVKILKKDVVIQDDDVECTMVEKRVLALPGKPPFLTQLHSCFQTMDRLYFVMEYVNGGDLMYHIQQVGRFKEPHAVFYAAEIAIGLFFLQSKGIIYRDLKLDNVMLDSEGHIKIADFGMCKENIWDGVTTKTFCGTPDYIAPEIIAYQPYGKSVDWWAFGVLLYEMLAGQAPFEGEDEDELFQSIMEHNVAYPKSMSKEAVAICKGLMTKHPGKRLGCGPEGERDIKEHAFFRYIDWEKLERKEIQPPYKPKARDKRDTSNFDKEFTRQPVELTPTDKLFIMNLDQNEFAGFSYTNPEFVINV
The description is as above. The following applies: for PKC-β selectivity: Fig. 7A, PKC-β over PKC-δ; for logKi (best-fit value), PKC-β-I: log of Ki in nM.
From the text: as §1, §2
The protein kinase C (PKC) affinity of EBC-46 and EBC-46 analogs was determined via […]
entails a glass-fiber filtration method to determine bound radioligand. The method of determining the radioligand Kd is also described.
as §3, §4, §5
Human PKC-β-I-GST fusion protein (Invitrogen, aliquoted and stored at -78 °C) Human PKC-δ-GST fusion protein (Invitrogen, aliquoted and stored at -78 °C) Glass-fiber filters (Whatman GF/B) […]
as §6, §7, §8, §9, §10, §11, §12, §13, §14, §15, §16, §17, §18, §19, §20, §21, §22
For the competition binding experiment (analog Ki determination), 7 or 14 concentrations were used to define the inhibition curve, and compounds dilutions changed by factors of 2 or √2 between data points. The concentrations were chosen such that the in-assay concentration for the data points in the middle of the binding curve were approximately equal to the IC50 of the compound (if the IC50 is unknown, an exploratory binding assay is recommended prior to Ki determination). For assays with one compound per sheet, the √2-fold dilutions were prepared for the concentrations in […]
PKC binding assay protocol (Saturation -binding experiment and Competition -binding experiment)
1) Glass-fiber filters were prepared by soaking them in a solution of aqueous polyethyleneimine

Setting [1] is: HotNM 2.5, HotKdNM 0.62, supplement fit, read-out: Ki (best-fit value), PKC-δ.
[2] abbreviates: competition against radiolabeled PDBu, Fig. 7A and text, read-out: Ki PKC-δ.
The mark [3] stands for this setting: log of Ki in nM, HotNM 2.5, HotKdNM 0.62.
Setting [4] is: HotNM 2.5, HotKdNM 0.37, supplement fit, read-out: Ki (best-fit value), PKC-β-I.
The mark [5] stands for this setting: competition against radiolabeled PDBu, Fig. 7A and text, read-out: Ki PKC-β.

Where two headings read alike, the source gives them in different places. Bounds are passed on as bounds.

The term Ki denotes the dissociation constant of the complex between target and ligand, obtained from inhibition or displacement.

T1 sequence (Q05655 whole entry): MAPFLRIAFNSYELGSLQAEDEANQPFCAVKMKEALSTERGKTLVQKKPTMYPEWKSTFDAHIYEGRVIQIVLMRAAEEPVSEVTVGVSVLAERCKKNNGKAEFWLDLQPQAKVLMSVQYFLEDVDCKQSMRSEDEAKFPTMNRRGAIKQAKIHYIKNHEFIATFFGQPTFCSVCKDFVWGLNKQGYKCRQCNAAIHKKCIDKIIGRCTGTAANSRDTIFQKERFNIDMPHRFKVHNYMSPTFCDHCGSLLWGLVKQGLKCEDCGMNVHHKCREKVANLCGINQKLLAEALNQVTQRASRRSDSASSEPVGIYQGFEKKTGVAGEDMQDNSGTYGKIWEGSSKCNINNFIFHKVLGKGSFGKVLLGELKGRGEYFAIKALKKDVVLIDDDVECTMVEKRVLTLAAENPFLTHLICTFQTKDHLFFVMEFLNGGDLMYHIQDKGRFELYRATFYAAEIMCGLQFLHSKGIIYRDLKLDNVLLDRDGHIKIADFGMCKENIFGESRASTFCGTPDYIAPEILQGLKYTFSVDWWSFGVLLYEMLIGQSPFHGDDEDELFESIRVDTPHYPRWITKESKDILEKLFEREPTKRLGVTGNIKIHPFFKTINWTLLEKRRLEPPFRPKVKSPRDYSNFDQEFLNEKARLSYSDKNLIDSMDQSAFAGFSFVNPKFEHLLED

Consider `C/C=C(\C)C(=O)O[C@@H]1[C@@H](C)[C@]2(O)[C@@H]3C=C(C)[C@H](OC(=O)C=C(C)C)[C@@]3(O)[C@H](O)C(CO)=C[C@H]2[C@@H]2C(C)(C)[C@]12OC(=O)[C@@H](C)CC` [SUW425], for which the Ki at PKC-δ (setting [1]) came to 4.73 nM; on PKC-δ (setting [2]), 4.7 nM; on PKC-β-I (setting [4]) it was 2.61 nM; at PKC-β-I (setting [5]), 2.6 nM. Further, the “logKi (best-fit value), PKC-δ” value on PKC-δ (setting [3]) is recorded as 0.6748. Moreover, the PKC-β selectivity on PKC-β-I is 1.8. Moreover, on PKC-β-I (PKC-β and PKC-δ), the “PKC binding affinity and selectivity in words” value is reported as “approximately the same as EBC-46”. On PKC-β-I (HotNM 2.5, HotKdNM 0.37), the “logKi (best-fit value), PKC-β-I” value was 0.4165.

Consider `CC=C(C)C(=O)OC1C(C)C2(O)C(C3OC3(COC)C(O)C3(O)C(=O)C(C)=CC32)C2C(C)(C)C12OC(=O)C(C)CC` (stereo not drawn) [SUW426], for which the “logKi (best-fit value), PKC-δ” value at PKC-δ (HotNM 5, HotKdNM 0.72) is reported as 2.846. For the same compound, the Ki stood at 702 nM on PKC-δ (HotNM 5, HotKdNM 0.72, read-out: Ki (best-fit value), PKC-δ); 700 nM at PKC-δ (setting [2]); 396 nM on PKC-β-I (setting [4]); 400 nM on PKC-β-I (setting [5]). The compound also gave a PKC-β selectivity on PKC-β-I of 1.8. The “decrease in PKC binding affinity / potency compared to EBC-46” value at PKC-β-I (PKC-β and PKC-δ) is “approximately 250 fold”. For the same compound, at PKC-β-I (HotNM 2.5, HotKdNM 0.37), the “logKi (best-fit value), PKC-β-I” value is listed as 2.598.

As to `C/C=C(\C)C(=O)O[C@@H]1[C@@H](C)[C@@]2(O)[C@H]([C@@H]3C(C)(C)[C@]13OC(=O)c1ccccc1)[C@@H]1O[C@]1(CO)[C@@H](O)[C@]1(O)C(=O)C(C)=C[C@H]12` [SUW428], at PKC-δ, the “weaker binding affinity for PKC-δ than EBC-46” value is on record as ~ 20 ×. Also, the Ki amounted to 64.2 nM at PKC-δ (setting [1]), 64 nM on PKC-δ (setting [2]), 5.12 nM at PKC-β-I (setting [4]) and 5.1 nM at PKC-β-I (setting [5]). Further, the “logKi (best-fit value), PKC-δ” value at PKC-δ (setting [3]) stood at 1.808. On PKC-β-I, the “selectivity for PKC-β over PKC-δ” value is on record as more than 12 fold. The PKC-β selectivity on PKC-β-I is recorded as 12.5. Moreover, the “PKC binding affinity and selectivity in words” value at PKC-β-I (PKC-β and PKC-δ) was “approximately three times lower affinity for PKC-β compared to EBC-46”. The “logKi (best-fit value), PKC-β-I” value at PKC-β-I (HotNM 2.5, HotKdNM 0.37) was 0.7091.

`CC[C@H](C)C(=O)O[C@@]12[C@H](OC(C)(C)C)[C@@H](C)[C@@]3(O)[C@H]([C@@H]1C2(C)C)[C@@H]1O[C@]1(CO)[C@@H](O)[C@]1(O)C(=O)C(C)=C[C@H]13` [SUW430]: the “weaker binding affinity for PKC-δ than EBC-46” value at PKC-δ was ~ 20 ×. Moreover, the Ki at PKC-δ (setting [1]) turned out to be 59.7 nM; on PKC-δ (setting [2]) it was 60 nM; at PKC-β-I (setting [4]), 1.47 nM; on PKC-β-I (setting [5]) it was 1.5 nM. For the same compound, the “logKi (best-fit value), PKC-δ” value on PKC-δ (setting [3]) is recorded as 1.776. Besides, the “selectivity for PKC-β over PKC-δ” value at PKC-β-I amounted to 40 fold. Also, at PKC-β-I (HotNM 2.5, HotKdNM 0.37), the “logKi (best-fit value), PKC-β-I” value came to 0.1684.

For `C/C=C(\C)C(=O)O[C@@H]1[C@@H](C)[C@@]2(O)[C@H]([C@@H]3C(C)(C)[C@]13OC(=O)Cc1cccc3ccccc13)[C@@H]1O[C@]1(CO)[C@@H](O)[C@]1(O)C(=O)C(C)=C[C@H]12` [SUW431], on PKC-δ, the “stronger binding for PKC-δ compared to EBC-46” value is given as 30 fold. The Ki came to 0.114 nM at PKC-δ (setting [1]), 0.11 nM on PKC-δ (read-out: binding for PKC-δ (Ki)), 0.079 nM on PKC-β-I (setting [4]) and 0.079 nM at PKC-β-I (read-out: binding for PKC-β (Ki)). For the same compound, at PKC-δ (comparison with literature value), the “greater affinity to PKC-δ than that reported for SUW013” value is reported as “approximately 10 fold”. The “logKi (best-fit value), PKC-δ” value on PKC-δ (setting [3]) was -0.9424. For the same compound, the “selectivity for PKC-β over PKC-δ” value on PKC-β-I is recorded as 1.4 fold. At PKC-β-I, the “stronger binding for PKC-β compared to EBC-46” value is reported as ~ 20 fold. Moreover, at PKC-β-I (PKC-β and PKC-δ), the “PKC binding affinity and selectivity in words” value was “remarkable affinities in the picomolar range”. Also, at PKC-β-I (HotNM 2.5, HotKdNM 0.37), the “logKi (best-fit value), PKC-β-I” value is -1.102.
